In patent publication US20240174680A1, “CDK2 INHIBITORS AND METHODS OF USING THE SAME” (Cedilla Therapeutics, Inc., priority 2021, published 2024) one finds IC50 data, which are given here for 20 compounds.

The target in this assay is CDK2/Cyclin E1 (Homo sapiens, UniProt P24941). Briefly: CDK2/Cyclin E1 Caliper LabChip EZ Reader mobility shift assay. The assay is classed as biochemical. The arrangement: purchased Eurofins 14-475. As to conditions: read-out: Caliper Assay (CDK2/CCNE1): IC50. Summed up: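 Substrate-to-product conversion of fluorescent peptide (1.5 μM final) read by capillary electrophoresis after 100 min reaction, EDTA-quenched. Enzyme (2.5 nM final) and ATP (100 μM final) were preincubated 30 min with inhibitor dilutions first. % activity vs concentration fitted four-parameter for IC50.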

The structures appear in SMILES notation.

Turning to `C[C@@H](OCC1CCCCC1)[C@H](NC(=O)C1CN(C(=O)c2cnn(Cc3ccccc3)c2)CC12CN(C(=O)[C@H]1CC1(C)C)C2)C(=O)N1CCC(F)(F)CC1` (some centres unmarked) [I-149 mixture], the IC50 is not above 0.01 µM. The figure for `C[C@@H](OCC1CCCCC1)[C@H](NC(=O)[C@@H]1CN(C(=O)c2cnn(Cc3ccccc3)c2)CC12CN(C(=O)[C@H]1CC1(C)C)C2)C(=O)N1CCC(F)(F)CC1` [I-149A] is not above 0.01 µM; for `C[C@@H](OCC1CCCCC1)[C@H](NC(=O)[C@H]1CN(C(=O)c2cnn(Cc3ccccc3)c2)CC12CN(C(=O)[C@H]1CC1(C)C)C2)C(=O)N1CCC(F)(F)CC1` [I-149B] it is 0.1 to 1 µM. With `C[C@@H](OCC1CCCCC1)[C@H](NC(=O)[C@H]1CN(C(=O)c2cn[nH]c2)CC12CN(C(=O)[C@H]1CC1(C)C)C2)C(=O)N1CCCCC1` [I-151B], the IC50 fell in the range of 1 to 10 µM. On to `C[C@@H](OCC1CCCCC1)[C@H](NC(=O)C1CN(C(=O)c2cnn(Cc3ccccc3)c2)CC12CN(C(=O)[C@H]1CC1(C)C)C2)C(=O)N1CCOCC1` (some centres unmarked) [I-152 mixture], for which the IC50 is not above 0.01 µM.

`C[C@@H](OCC1CCCCC1)[C@H](NC(=O)[C@@H]1CN(C(=O)c2cnn(Cc3ccccc3)c2)CC12CN(C(=O)[C@H]1CC1(C)C)C2)C(=O)N1CCOCC1` [I-152A]: the IC50 was not above 0.01 µM. The result for `C[C@@H](OCC1CCCCC1)[C@H](NC(=O)[C@H]1CN(C(=O)c2cnn(Cc3ccccc3)c2)CC12CN(C(=O)[C@H]1CC1(C)C)C2)C(=O)N1CCOCC1` [I-152B] reads 1 to 10 µM; that for `C[C@@H](OCC1CCCCC1)[C@H](NC(=O)C1CN(C(=O)c2cnn(Cc3ccccc3)c2)CC12CN(C(=O)[C@H]1CC1(C)C)C2)C(=O)N1CC(C)(C)C1` (some centres unmarked) [I-153 mixture], not above 0.01 µM. For `C[C@@H](OCC1CCCCC1)[C@H](NC(=O)[C@H]1CN(C(=O)c2cnn(Cc3ccccc3)c2)CC12CN(C(=O)[C@H]1CC1(C)C)C2)C(=O)N1CC(C)(C)C1` [I-153B], the IC50 lay within 1 to 10 µM. For the compound `C[C@@H](OCC1CCCCC1)[C@H](NC(=O)[C@H]1CN(C(=O)c2cn[nH]c2)CC12CN(C(=O)[C@H]1CC1(C)C)C2)C(=O)N1CCC(F)(F)CC1` [I-154B], the IC50 fell in the range of 1 to 10 µM. With `CNC(=O)[C@H](CCCC1CCCCC1)NC(=O)[C@@H]1CN(C(=O)c2cnn(Cc3ccccc3)c2)CC12CN(C(=O)[C@H]1CC1(C)C)C2` [I-155A], the IC50 fell in the range of 0.1 to 1 µM. As to `CNC(=O)[C@H](CCCC1CCCCC1)NC(=O)[C@H]1CN(C(=O)c2cnn(Cc3ccccc3)c2)CC12CN(C(=O)[C@H]1CC1(C)C)C2` [I-155B], the IC50 was in the range of 1 to 10 µM. As to `CNC(=O)[C@@H](NC(=O)[C@@H]1CN(C(=O)c2cnc(C)s2)CC12CN(C(=O)[C@H]1CC1(C)C)C2)[C@@H](C)OCC1CCCCC1` [I-156A], the IC50 was 0.01 to 0.1 µM.

For the compound `CNC(=O)[C@@H](NC(=O)[C@H]1CN(C(=O)c2cnc(C)s2)CC12CN(C(=O)[C@H]1CC1(C)C)C2)[C@@H](C)OCC1CCCCC1` [I-156B], the IC50 is more than 10 µM. `CNC(=O)[C@@H](NC(=O)[C@@H]1CN(C(=O)c2scnc2Cl)CC12CN(C(=O)[C@H]1CC1(C)C)C2)[C@@H](C)OCC1CCCCC1` [I-157A]: the IC50 lay in the range of 0.01 to 0.1 µM. The result for `CNC(=O)[C@@H](NC(=O)[C@H]1CN(C(=O)c2scnc2Cl)CC12CN(C(=O)[C@H]1CC1(C)C)C2)[C@@H](C)OCC1CCCCC1` [I-157B] reads 0.1 to 1 µM; that for `Cc1noc([C@H](C)NC(=O)[C@@H]2CN(C(=O)c3cnn(Cc4ccccc4)c3)CC23CN(C(=O)[C@H]2CC2(C)C)C3)n1` [I-158A], more than 10 µM. As to `Cc1noc([C@H](C)NC(=O)[C@H]2CN(C(=O)c3cnn(Cc4ccccc4)c3)CC23CN(C(=O)[C@H]2CC2(C)C)C3)n1` [I-158B], the IC50 is more than 10 µM. For `CNC(=O)[C@@H](NC(=O)C1CN(Cc2n[nH]c3ccccc23)CC12CN(C(=O)[C@H]1CC1(C)C)C2)[C@@H](C)OCc1ccccc1` (some centres unmarked) [I-159], the IC50 is more than 10 µM. For `CNC(=O)[C@@H](NC(=O)[C@@H]1CN(C(=O)c2scnc2C)CC12CN(C(=O)[C@H]1CC1(C)C)C2)[C@@H](C)OCC1CCCCC1` [I-160A], the IC50 is 0.01 to 0.1 µM.
